Data on 3 compounds can be found in the NIST ThermoML archive (doi:10.1016/j.tca.2015.06.009).

Numbers after ± are expanded uncertainties.

For data set [1] the following is noted: 300 K; 101.33 kPa; Crystal; Photoacoustics.
The nature of data set [2]: isobaric coefficient of expansion. The settings on record: 300 K; 101.33 kPa; Crystal; Photoacoustics.

Take `[Cu]` [copper]: the thermal diffusivity in data set [1] came to 0.000116 ± 4e-06 m2/s. Further, in data set [2], the “isobaric coefficient of expansion” value is 1.3e-05 ± 1e-06 1/K.
Regarding `[Ag]` [silver], in data set [1], the thermal diffusivity worked out at 0.000174 ± 1.2e-05 m2/s. The “isobaric coefficient of expansion” value in data set [2] is 1.4e-05 ± 1e-06 1/K.
Regarding `[Al]` [aluminum], the thermal diffusivity in data set [1] came to 9.37e-05 ± 1.6e-06 m2/s. In addition, in data set [2], the “isobaric coefficient of expansion” value was 1.5e-05 ± 1e-06 1/K.
